Experimental data published in ChEMBL document CHEMBL3351879, “Isolation, structure elucidation, relative LC-MS response, and in vitro toxicity of azaspiracids from the dinoflagellate Azadinium spinosum” (J Nat Prod, 2014).

Columns and labels:
Format in all cases: functional, cell-based
[1] = Cytotoxicity against human Jurkat E6-1 cells assessed as cell viability after 48 hrs by MTS assay
[2] = Cytotoxicity against human Jurkat E6-1 cells assessed as cell viability after 24 hrs by MTS assay
[3] = Cytotoxicity against human Jurkat E6-1 cells assessed as cell viability after 72 hrs by MTS assay

SMILES	EC50 [1] [nM]	EC50 [2] [nM]	EC50 [3] [nM]
C=C(C[C@@]12C[C@@H](C)C[C@@H](O1)[C@H]1O[C@]3(C[C@H]1O2)NC[C@H](C)C[C@@H]3C)[C@H]1O[C@@](O)([C@H](O)[C@@H]2C[C@H]3O[C@@]4(CC[C@]5(CC=C[C@@H](CCC(=O)O)O5)O4)[C@H](C)C[C@H]3O2)[C@H](C)C[C@@H]1C	0.18	0.23	0.2
C=C(C[C@@]12C[C@@H](C)C[C@@H](O1)[C@H]1O[C@]3(C[C@H]1O2)NC[C@H](C)C[C@@H]3C)[C@H]1O[C@@](O)([C@H](O)[C@@H]2CC[C@@H](C/C=C/CC/C=C/CCC(=O)O)O2)[C@H](C)C[C@@H]1C	5.9	3.3	6.4
C=C(C[C@]12C[C@@H](C)C[C@H](O1)[C@H]1O[C@]3(C[C@H]1O2)NC[C@H](C)C[C@@H]3C)[C@H]1O[C@@](O)([C@H](O)[C@@H]2C[C@H]3O[C@@]4(CC[C@]5(CC=C[C@@H](/C=C/CCC(=O)O)O5)O4)[C@H](C)C[C@H]3O2)[C@H](C)C[C@@H]1C	1.1	0.96	1.3
